Literature values as cited in US6340480B1, “Natural composition for the treatment of circulatory conditions” (priority 1998, dated 2002).

Test system: Activated Macrophages
Details: for killing certain tumor cells; literature study

Question: For CC(C)=CCC[C@](C)(O[C@@H]1O[C@H](CO)[C@@H](O)[C@H](O)[C@H]1O)[C@H]1CC[C@]2(C)[C@@H]1[C@H](O)C[C@@H]1[C@@]3(C)CC[C@H](O)C(C)(C)[C@@H]3[C@@H](O[C@@H]3O[C@H](CO)[C@@H](O)[C@H](O)[C@H]3O)C[C@]12C [RG1], which “production of NO” value is on record?
Answer: enhances the production of NO
